Data from PubChem BioAssay (NCI).
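Dose response: 5 concentrations. Exposure: 48 h. Format: 96-well plates. Endpoint: linear interpolation; highest concentration if not reached. TGI is the concentration that stops growth completely.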

Experiments:
Assay in all cases: inhibition of tumour cell growth, NCI panel, 48 h
786-0 renal = tested on: 786-0 renal
A549 NSCLC = tested on: A549 NSCLC
BT-549 breast = tested on: BT-549 breast
CAKI-1 renal = tested on: CAKI-1 renal
CCRF-CEM leukemia = tested on: CCRF-CEM leukemia
COLO 205 colon = tested on: COLO 205 colon
DU-145 prostate = tested on: DU-145 prostate
EKVX NSCLC = tested on: EKVX NSCLC
HCC-2998 colon = tested on: HCC-2998 colon
HCT-116 colon = tested on: HCT-116 colon
HCT-15 colon = tested on: HCT-15 colon
HL-60(TB) leukemia = tested on: HL-60(TB) leukemia
HOP-62 NSCLC = tested on: HOP-62 NSCLC
HS 578T breast = tested on: HS 578T breast
HT29 colon = tested on: HT29 colon
IGROV1 ovarian = tested on: IGROV1 ovarian
K-562 leukemia = tested on: K-562 leukemia
KM12 colon = tested on: KM12 colon
LOX IMVI melanoma = tested on: LOX IMVI melanoma
M14 melanoma = tested on: M14 melanoma
MALME-3M melanoma = tested on: MALME-3M melanoma
MCF7 breast = tested on: MCF7 breast
MDA-MB-231 breast = tested on: MDA-MB-231 breast
MDA-MB-435 = tested on: MDA-MB-435
MDA-N = tested on: MDA-N
MOLT-4 leukemia = tested on: MOLT-4 leukemia
NCI-H226 lung = tested on: NCI-H226 lung
NCI-H23 lung = tested on: NCI-H23 lung
NCI-H460 lung = tested on: NCI-H460 lung
NCI-H522 lung = tested on: NCI-H522 lung
NCI/ADR-RES ovarian = tested on: NCI/ADR-RES ovarian
OVCAR-3 ovarian = tested on: OVCAR-3 ovarian
OVCAR-4 ovarian = tested on: OVCAR-4 ovarian
OVCAR-8 ovarian = tested on: OVCAR-8 ovarian
PC-3 prostate = tested on: PC-3 prostate
RPMI-8226 leukemia = tested on: RPMI-8226 leukemia
RXF 393 renal = tested on: RXF 393 renal
SF-268 CNS = tested on: SF-268 CNS
SF-295 CNS = tested on: SF-295 CNS
SF-539 CNS = tested on: SF-539 CNS
SK-MEL-2 melanoma = tested on: SK-MEL-2 melanoma
SK-MEL-28 melanoma = tested on: SK-MEL-28 melanoma
SK-MEL-5 melanoma = tested on: SK-MEL-5 melanoma
SK-OV-3 ovarian = tested on: SK-OV-3 ovarian
SN12C renal = tested on: SN12C renal
SNB-19 CNS = tested on: SNB-19 CNS
SR leukemia = tested on: SR leukemia
SW-620 colon = tested on: SW-620 colon
T-47D breast = tested on: T-47D breast
TK-10 renal = tested on: TK-10 renal
U251 CNS = tested on: U251 CNS
UACC-257 melanoma = tested on: UACC-257 melanoma
UACC-62 melanoma = tested on: UACC-62 melanoma
UO-31 renal = tested on: UO-31 renal
A498 renal = tested on: A498 renal
ACHN renal = tested on: ACHN renal
HOP-92 NSCLC = tested on: HOP-92 NSCLC
OVCAR-5 ovarian = tested on: OVCAR-5 ovarian
SNB-75 CNS = tested on: SNB-75 CNS

N#Cc1sc2c(c1OC(=O)c1ccccc1)c(=O)n(-c1ccccc1)c(=S)n2-c1ccccc1
TGI (786-0 renal): 85.1 µM | TGI (A549 NSCLC): > 100 µM | TGI (BT-549 breast): > 100 µM | TGI (CAKI-1 renal): > 100 µM | TGI (CCRF-CEM leukemia): 61.6 µM | TGI (COLO 205 colon): 34.2 µM | TGI (DU-145 prostate): > 100 µM | TGI (EKVX NSCLC): 68.6 µM | TGI (HCC-2998 colon): 68.9 µM | TGI (HCT-116 colon): 40.6 µM | TGI (HCT-15 colon): 39.4 µM | TGI (HL-60(TB) leukemia): 61.4 µM | TGI (HOP-62 NSCLC): 46.5 µM | TGI (HS 578T breast): 52.2 µM | TGI (HT29 colon): > 100 µM | TGI (IGROV1 ovarian): 45.7 µM | TGI (K-562 leukemia): > 100 µM | TGI (KM12 colon): 43.5 µM | TGI (LOX IMVI melanoma): 51.7 µM | TGI (M14 melanoma): 40.6 µM | TGI (MALME-3M melanoma): 50 µM | TGI (MCF7 breast): 43.6 µM | TGI (MDA-MB-231 breast): 59.2 µM | TGI (MDA-MB-435): 67.9 µM | TGI (MDA-N): 65.1 µM | TGI (MOLT-4 leukemia): 51.8 µM | TGI (NCI-H226 lung): 40.8 µM | TGI (NCI-H23 lung): 58.9 µM | TGI (NCI-H460 lung): > 100 µM | TGI (NCI-H522 lung): 29.8 µM | TGI (NCI/ADR-RES ovarian): 49.3 µM | TGI (OVCAR-3 ovarian): > 100 µM | TGI (OVCAR-4 ovarian): 80.7 µM | TGI (OVCAR-8 ovarian): > 100 µM | TGI (PC-3 prostate): 66.6 µM | TGI (RPMI-8226 leukemia): 66.5 µM | TGI (RXF 393 renal): 32.7 µM | TGI (SF-268 CNS): > 100 µM | TGI (SF-295 CNS): 70.3 µM | TGI (SF-539 CNS): 47.8 µM | TGI (SK-MEL-2 melanoma): 80.3 µM | TGI (SK-MEL-28 melanoma): 72.4 µM | TGI (SK-MEL-5 melanoma): 28.5 µM | TGI (SK-OV-3 ovarian): > 100 µM | TGI (SN12C renal): 77.7 µM | TGI (SNB-19 CNS): > 100 µM | TGI (SR leukemia): > 100 µM | TGI (SW-620 colon): > 100 µM | TGI (T-47D breast): 46.9 µM | TGI (TK-10 renal): > 100 µM | TGI (U251 CNS): 53.3 µM | TGI (UACC-257 melanoma): > 100 µM | TGI (UACC-62 melanoma): 40.9 µM | TGI (UO-31 renal): 35.6 µM

COc1c(Br)cc2c(c1OC)C(Br)CCC(Br)(Br)C2=O (stereo not given)
TGI (786-0 renal): 1.46 µM | TGI (A498 renal): 12.3 µM | TGI (A549 NSCLC): 16.2 µM | TGI (ACHN renal): 5.21 µM | TGI (BT-549 breast): 1.37 µM | TGI (CAKI-1 renal): 8.3 µM | TGI (COLO 205 colon): 4.1 µM | TGI (DU-145 prostate): 9.64 µM | TGI (EKVX NSCLC): 14.6 µM | TGI (HCC-2998 colon): 16.6 µM | TGI (HCT-116 colon): 0.853 µM | TGI (HCT-15 colon): 1.63 µM | TGI (HL-60(TB) leukemia): 3.09 µM | TGI (HOP-62 NSCLC): 4.81 µM | TGI (HOP-92 NSCLC): 12.5 µM | TGI (HS 578T breast): > 71.7 µM | TGI (HT29 colon): 3.71 µM | TGI (IGROV1 ovarian): 5.76 µM | TGI (K-562 leukemia): 8.76 µM | TGI (KM12 colon): 14.6 µM | TGI (LOX IMVI melanoma): 1.58 µM | TGI (M14 melanoma): 0.539 µM | TGI (MALME-3M melanoma): 10.8 µM | TGI (MCF7 breast): 6.13 µM | TGI (MDA-MB-231 breast): 8.32 µM | TGI (MDA-MB-435): 3.62 µM | TGI (MDA-N): 0.684 µM | TGI (MOLT-4 leukemia): 5.73 µM | TGI (NCI-H226 lung): 5.84 µM | TGI (NCI-H23 lung): 3.71 µM | TGI (NCI-H460 lung): 8.92 µM | TGI (NCI-H522 lung): 2 µM | TGI (NCI/ADR-RES ovarian): 2.77 µM | TGI (OVCAR-3 ovarian): 2.91 µM | TGI (OVCAR-4 ovarian): 6.87 µM | TGI (OVCAR-5 ovarian): 13.6 µM | TGI (OVCAR-8 ovarian): 1.53 µM | TGI (PC-3 prostate): 4.03 µM | TGI (RPMI-8226 leukemia): 6.06 µM | TGI (RXF 393 renal): 1.82 µM | TGI (SF-268 CNS): 4.37 µM | TGI (SF-295 CNS): 6.77 µM | TGI (SF-539 CNS): 5.25 µM | TGI (SK-MEL-2 melanoma): 4.4 µM | TGI (SK-MEL-28 melanoma): 8.88 µM | TGI (SK-MEL-5 melanoma): 6.26 µM | TGI (SK-OV-3 ovarian): 10.5 µM | TGI (SN12C renal): 1.42 µM | TGI (SNB-19 CNS): 14.1 µM | TGI (SNB-75 CNS): 22.2 µM | TGI (SR leukemia): 1.29 µM | TGI (SW-620 colon): 1.58 µM | TGI (T-47D breast): 4.84 µM | TGI (TK-10 renal): 8.39 µM | TGI (U251 CNS): 5.91 µM | TGI (UACC-257 melanoma): 14.7 µM | TGI (UACC-62 melanoma): 13.1 µM | TGI (UO-31 renal): 2.89 µM

CC1=NN(C(=O)c2ccncc2)C(=O)C1
TGI (786-0 renal): > 100 µM | TGI (A498 renal): > 100 µM | TGI (A549 NSCLC): > 100 µM | TGI (ACHN renal): > 100 µM | TGI (BT-549 breast): > 100 µM | TGI (CAKI-1 renal): > 100 µM | TGI (CCRF-CEM leukemia): > 100 µM | TGI (COLO 205 colon): > 100 µM | TGI (DU-145 prostate): > 100 µM | TGI (EKVX NSCLC): > 100 µM | TGI (HCC-2998 colon): > 100 µM | TGI (HCT-116 colon): > 100 µM | TGI (HCT-15 colon): > 100 µM | TGI (HL-60(TB) leukemia): > 100 µM | TGI (HOP-62 NSCLC): > 100 µM | TGI (HOP-92 NSCLC): > 100 µM | TGI (HS 578T breast): > 100 µM | TGI (HT29 colon): > 100 µM | TGI (IGROV1 ovarian): > 100 µM | TGI (K-562 leukemia): > 100 µM | TGI (KM12 colon): > 100 µM | TGI (LOX IMVI melanoma): > 100 µM | TGI (M14 melanoma): > 100 µM | TGI (MALME-3M melanoma): > 100 µM | TGI (MCF7 breast): > 100 µM | TGI (MDA-MB-231 breast): > 100 µM | TGI (MDA-MB-435): > 100 µM | TGI (MDA-N): > 100 µM | TGI (MOLT-4 leukemia): > 100 µM | TGI (NCI-H226 lung): > 100 µM | TGI (NCI-H23 lung): > 100 µM | TGI (NCI-H460 lung): > 100 µM | TGI (NCI-H522 lung): > 100 µM | TGI (NCI/ADR-RES ovarian): > 100 µM | TGI (OVCAR-3 ovarian): > 100 µM | TGI (OVCAR-4 ovarian): > 100 µM | TGI (OVCAR-5 ovarian): > 100 µM | TGI (OVCAR-8 ovarian): > 100 µM | TGI (PC-3 prostate): > 100 µM | TGI (RXF 393 renal): > 100 µM | TGI (SF-268 CNS): > 100 µM | TGI (SF-295 CNS): > 100 µM | TGI (SF-539 CNS): > 100 µM | TGI (SK-MEL-2 melanoma): > 100 µM | TGI (SK-MEL-28 melanoma): > 100 µM | TGI (SK-MEL-5 melanoma): > 100 µM | TGI (SK-OV-3 ovarian): > 100 µM | TGI (SN12C renal): > 100 µM | TGI (SNB-19 CNS): > 100 µM | TGI (SNB-75 CNS): > 100 µM | TGI (SR leukemia): > 100 µM | TGI (SW-620 colon): > 100 µM | TGI (T-47D breast): > 100 µM | TGI (TK-10 renal): > 100 µM | TGI (U251 CNS): > 100 µM | TGI (UACC-257 melanoma): > 100 µM | TGI (UACC-62 melanoma): > 100 µM | TGI (UO-31 renal): > 100 µM
